Assay results as given in PMC9605374 (Marine Drugs, 2022).

Assays:
PC3-DR cells = assay: MTT assay with or without tariquidar pretreatment; assay type: cell-based, human; details: 48 h, tariquidar 50 nM 30 min pretreatment
Experimental: Number of replicates n = 3. […] Viability was measured using an MTT assay. Number of replicates n = 3.
As a next step, we investigated how NB interacts with p-gp. P-gp activity can be reduced in two distinct ways: (i) competitive inhibition through direct binding to the active pocket as the ligand itself; and (ii) allosteric/noncompetitive inhibition reducing the activity of a protein through binding to allosteric/regulatory sites or other means. […] Therefore, docetaxel binds to p-gp (while being excreted from the cell), competitively inhibiting p-gp-mediated calcein-AM excretion, which leads to calcein accumulation, resulting in more intense green fluoresce. To elucidate the mechanism of p-gp inhibition by NB (competitive vs. allosteric/noncompetitive inhibition), we co-treated PC3-DR cells with tariquidar (TQD), a selective noncompetitive p-gp inhibitor and NB, and examined the effect on cellular viability (Figure 8C). […]
The MTT assay was used to monitor the effect of the drugs on cell viability in terms of metabolic activity, as previously reported. […] Finally, 50 μL/well of DMSO were added to solve the formed formazan crystals produced by the metabolic active cells and Infinite F200PRO reader (TECAN, Männedorf, Switzerland) was used to measure the cell viability. […]

Artemia salina = tested on: Artemia salina; design: method as in PMID 26039736; details: cited from earlier work
22Rv1 cells = assay: Annexin-V-FITC/PI double staining, flow cytometry; assay type: cell-based, human
Experimental: Figure 4 Investigation of the proapoptotic activity of NB. Flow cytometry analysis of 22Rv1 cells after 48 h of treatment. (A) Cell cycle and DNA fragmentation analysis. Treated cells were stained with PI and analyzed using a flow cytometry technique. Sub-G1 population was assumed to be apoptotic cells containing fragmentated DNA. (B) Analysis of phosphatidylserine externalization. Treated cells were double-stained with annexin-V-FITC and PI and analyzed using the flow cytometry technique. Cells of the low left quadrant (annexin-V-FITC^−/PI^−) were considered as alive cells. The Cell Quest Pro v.5.2.1 software (BD Bioscience, San Jose, CA, USA) was used to analyze and quantify the FACS data. Cells treated for 48 h with 10 µM of anisomycin were used as a positive control. Number of replicates n = 3. Statistical significance: * p < 0.05 (ANOVA). […]
Externalization of phosphatidylserine is a distinct marker of apoptotic cell death that can be detected by flow cytometry using annexin-V-FITC and propidium iodide (PI) double staining. […] Cells were harvested utilizing trypsin, stained with annexin-V-FITC and propidium iodide, and analyzed using FACS Calibur (BD Bioscience, San Jose, CA, USA).

[1] = tested on: various pathogenic bacteria; design: method as in PMID 26039736; details: cited from earlier work

## COc1ccc(C2SSC34CC5(O)C(Cl)C=CC(O)C5ON3C(=O)C2N(C)C4=O)c(O)c1OC (centres unmarked) [NB, N-methylpretrichodermamide B]
PC3-DR cells
  cytotoxicity when co-treated with TQD: increased
Artemia salina
  LD50: 4.8 µM
22Rv1 cells; 22Rv1, 48 h
  phosphatidylserine externalization: caused DNA fragmentation and phosphatidylserine externalization
22Rv1 cells; 22Rv1, zVAD 100 µM 1 h pretreatment, 48 h
  effect of pretreatment with pan-caspase inhibitor zVAD on drug-induced cell death: could not significantly inhibit
[1]
  MIC: 8–32 µm/mL
